The record followed here is article PMC8814031, “Synthesis and characterization of novel combretastatin analogues of 1,1-diaryl vinyl sulfones, with antiproliferative potential via in-silico and in-vitro studies” (Scientific Reports, 2022).

The melting point is the temperature, or range, at which the solid turns liquid. Broadly, the IC50 is the concentration needed to halve the response being measured.

Structures are written as SMILES. Read-outs that look alike come from different tables or passages of the source.

The subject of series [1] is MDA-MB 231 (breast cancer) cells. The series is described as follows: MTT antiproliferative assay, MDA-MB 231. The series is classed as cell-based. Conditions: mean ± SEM of three experiments, read-out: IC50 values against selected human cancer cell lines, MDA-MB 231. From the text:
(§1) A panel of four cancer cell lines used for testing the in-vitro cytotoxicity include: MDA-MB-231 derived from human breast adenocarcinoma cells (ATCC No HTB-26), HeLa derived from human cervical cancer cells (ATCC No. CCL-2), A549 derived from human alveolar adenocarcinoma epithelial cells (ATCC No. CCL-185) and IMR-32 derived from human neuroblastoma cell line (ATCC No CCL-127), with a normal cell line HEK-293 (human embryonic kidney cell). These cancer cell lines were obtained from the American Type Culture Collection (ATCC), Manassas, VA, USA, and stored before use.
(§2) The cytotoxicity of synthesized compounds 4A–V were determined in triplicates by 3-[4,5-dimethylthiazol-2-yl]-2,5-diphenyltetrazolium bromide (MTT) assay[51]^,[52]. The pale yellow coloured tetrazolium salt (MTT) reduced to a dark blue water-insoluble formazan by metabolically active cells and the product was measured quantitatively after solubility in DMSO. The absorbance of the soluble formazan is directly proportional to the number of viable cells. A panel of four cancer cell lines were used for testing the in-vitro cytotoxicity. These cell lines were grown in Dulbecco’s modified Eagle’s medium (DMEM) containing non-essential amino acids and 10% FBS. All the cells were maintained under humidified conditions of 5% CO2 atmosphere at 37 °C in a CO2 incubator (Model Galaxy 170S, Eppendorf, USA). The 96-well micro titre plates were incubated for 24 h prior to addition of the experimental compounds. Cells were treated with vehicle alone (DMSO) or compounds (drugs (1 µg/mL) were dissolved in 100 µL DMSO previously) at different concentrations (0.1, 1, 10 and 25 µM) of test compounds for 48 h. The assay was completed with the addition of MTT (5%, 10µL) and incubated for 60 min at 37 °C. The supernatant was aspirated and plates were air dried and the MTT-formazan crystals were dissolved in 100 µL of DMSO.
(§3) The optical density (O.D) was measured at 570 nm using TECAN multimode reader (Infinite® M200Pro, Tecan, Switzerland). The percent cell viability of each treated well of 96 well plate was calculated based on test wells relative to control wells. Doxorubicin was used as positive controls for comparison purpose and 1% DMSO as a vehicle control. The cytotoxicity of test compounds was expressed in terms of IC50 value, which is defined as a concentration of compound that produced 50% reduction absorbance relative to control, and the absorbance at 570 nm wavelength was recorded.
On the technique in general: Tetrazolium assays rely on reduction of a dye to a coloured formazan, in cell work by metabolically active cells.

Series [2] concerns HeLa (cervical cancer) cells. The series is described as follows: MTT antiproliferative assay, HeLa. The note with it: 48 h, mean ± SEM of three experiments, read-out: IC50 values against selected human cancer cell lines, HeLa. Type of series: cell-based.
Excerpt: as §1, §2, §3

In another series the test system is A549 (lung cancer) cells. The series is described as follows: MTT antiproliferative assay, A549. Type of series: cell-based. The note with it: Homo sapiens, 48 h, mean ± SEM of three experiments, read-out: IC50 values against selected human cancer cell lines, A549. As for the experimental part:
These cancer cell lines were obtained from the American Type Culture Collection (ATCC), Manassas, VA, USA, and stored before use.
The pale yellow coloured tetrazolium salt (MTT) reduced to a dark blue water-insoluble formazan by metabolically active cells and the product was measured quantitatively after solubility in DMSO. The absorbance of the soluble formazan is directly proportional to the number of viable cells. A panel of four cancer cell lines were used for testing the in-vitro cytotoxicity. These cell lines were grown in Dulbecco’s modified Eagle’s medium (DMEM) containing non-essential amino acids and 10% FBS. […] The 96-well micro titre plates were incubated for 24 h prior to addition of the experimental compounds. […] The supernatant was aspirated and plates were air dried and the MTT-formazan crystals were dissolved in 100 µL of DMSO.
The optical density (O.D) was measured at 570 nm using TECAN multimode reader (Infinite® M200Pro, Tecan, Switzerland). The percent cell viability of each treated well of 96 well plate was calculated based on test wells relative to control wells. Doxorubicin was used as positive controls for comparison purpose and 1% DMSO as a vehicle control.

The subject of series [3] is IMR-32 (neuroblast cancer) cells. The series is described as follows: MTT antiproliferative assay, IMR-32. Type of series: cell-based. The note with it: mean ± SEM of three experiments, read-out: IC50 values against selected human cancer cell lines, IMR32.
Excerpt: as §1, §2, §3

Series [4] deals with HEK-293 (human embryonic kidney normal cell line). The series is described as follows: MTT cytotoxicity assay, normal cell line HEK-293. Type of series: cell-based. The note with it: for IC50: normal cell line.
Excerpt: as §1, §2, §3

For `COc1cc(/C(=C\S(=O)(=O)c2ccc(C)cc2)c2ccc(F)c(Cl)c2)cc(OC)c1OC` [Compound 4L], the melting point lay in the range of 123 to 125 °C. Further, the IC50 in series [1] (Homo sapiens, MDA-MB-231, 48 h) turned out to be 13.4 ± 1.49 µM. Also, the IC50 in series [2] (Homo sapiens, HeLa) came out at 8.74 ± 0.49 µM. Also, the IC50 in the series with A549 (lung cancer) cells was 8.54 ± 0.85 µM. In addition, in series [3] (Homo sapiens, IMR-32, 48 h), the IC50 was 5.12 ± 0.36 µM. In series [4] (Homo sapiens, HEK293, 48 h), this compound yielded an IC50 greater than 25 µM.
`COc1cc(/C(=C\S(=O)(=O)c2ccc(C)cc2)c2ccc(Cl)cc2)cc(OC)c1OC` [Compound 4M] displayed a melting point of 96 to 98 °C. Moreover, the IC50 in series [1] (Homo sapiens, MDA-MB-231, 48 h) was 11.1 ± 1.5 µM. Further, the IC50 in the series with A549 (lung cancer) cells was determined as 5.12 ± 0.08 µM. For the same compound, the IC50 in series [3] (Homo sapiens, IMR-32, 48 h) came to 6.79 ± 0.44 µM. In addition, in series [4] (Homo sapiens, HEK293, 48 h), the IC50 was greater than 25 µM.
Take `COc1cc(/C(=C\S(=O)(=O)c2ccc(C)cc2)c2ccc(Cl)c(Cl)c2)cc(OC)c1OC` [Compound 4N]: the melting point was in the range of 151 to 153 °C. Also, in series [1] (Homo sapiens, MDA-MB-231, 48 h), the IC50 amounted to 9.85 ± 0.72 µM. Moreover, the IC50 in series [2] (Homo sapiens, HeLa) amounted to 9.64 ± 0.96 µM. Further, the IC50 in the series on A549 (lung cancer) cells was found to be 6.79 ± 0.19 µM. In series [3] (Homo sapiens, IMR-32, 48 h), the 50% inhibitory concentration (IC50) stood at 9.14 ± 0.84 µM. In series [4] (Homo sapiens, HEK293, 48 h), the IC50 is greater than 25 µM.
Compound `COc1cc(/C(=C\S(=O)(=O)c2ccc(C)cc2)c2ccc(C#N)cc2)cc(OC)c1OC` [Compound 4O] gave a melting point of 165 to 167 °C. Also, in series [1] (Homo sapiens, MDA-MB-231, 48 h), the IC50 came to 12.4 ± 1.67 µM. The IC50 in series [2] (Homo sapiens, HeLa) was found to be 9.83 ± 0.76 µM. Further, the IC50 in the series on A549 (lung cancer) cells came to 9.14 ± 0.91 µM. In addition, the IC50 in series [3] (Homo sapiens, IMR-32, 48 h) is 9.08 ± 0.07 µM. For the same compound, the IC50 in series [4] (Homo sapiens, HEK293, 48 h) is greater than 25 µM.
For the compound `COc1cc(/C(=C\S(=O)(=O)c2ccc(C)cc2)c2cccc(C(F)(F)F)c2F)cc(OC)c1OC` [Compound 4Q], the IC50 is 12.2 ± 1.61 µM in series [1] (48 h), 10.7 ± 0.74 µM in series [2], 7.46 ± 0.61 µM in series [3] (48 h) and greater than 25 µM in series [4] (48 h).
As to `COc1cc(/C(=C\S(=O)(=O)c2ccc(C)cc2)c2cc(C)ccc2F)cc(OC)c1OC` [Compound 4R], the IC50 in series [1] (Homo sapiens, MDA-MB-231, 48 h) is 12.2 ± 0.54 µM; in series [2] (Homo sapiens, HeLa), 10.5 ± 1.03 µM; in the series with A549 (lung cancer) cells, 7.46 ± 0.07 µM; in series [3] (Homo sapiens, IMR-32, 48 h), 6.14 ± 0.03 µM; in series [4] (Homo sapiens, HEK293, 48 h), greater than 25 µM.
Regarding `COc1cc(/C(=C\S(=O)(=O)c2ccc(C)cc2)c2ccc(C)c(F)c2)cc(OC)c1OC` [Compound 4T], the melting point lay within 124 to 126 °C. In addition, the IC50 in series [1] (Homo sapiens, MDA-MB-231, 48 h) was 10.4 ± 1.55 µM. Moreover, the IC50 in series [2] (Homo sapiens, HeLa) worked out at 8.39 ± 0.99 µM. The IC50 in the series on A549 (lung cancer) cells is 7.22 ± 0.81 µM. Further, the IC50 in series [3] (Homo sapiens, IMR-32, 48 h) came to 6.29 ± 0.07 µM. In series [4] (Homo sapiens, HEK293, 48 h), this compound came in with an IC50 greater than 25 µM.
Turning to `COc1cc(/C(=C\S(=O)(=O)c2ccc(C)cc2)c2ccc(-c3ccccc3)cc2)cc(OC)c1OC` [Compound 4U], the melting point lay within 132 to 134 °C. Also, the IC50 in series [1] (Homo sapiens, MDA-MB-231, 48 h) amounted to 23.9 ± 1.56 µM. The IC50 in series [2] (Homo sapiens, HeLa) was found to be 11.7 ± 0.81 µM. Further, the IC50 in the series with A549 (lung cancer) cells was determined as 11.1 ± 0.78 µM. Moreover, the IC50 in series [3] (Homo sapiens, IMR-32, 48 h) was 11.8 ± 0.13 µM. Besides, the IC50 in series [4] (Homo sapiens, HEK293, 48 h) is greater than 25 µM.
In turn, `COc1cc(C#CS(=O)(=O)c2ccc(C)cc2)cc(OC)c1OC` [Compound 4V] displayed a melting point of 119 to 121 °C. Further, the “Cytotoxicity towards normal cell line HEK-293 (in words)” value in series [4] (normal cells) is listed as “showed some level of cytotoxicity”.
`COc1cccc2c1C(=O)c1c(O)c3c(c(O)c1C2=O)C[C@@](O)(C(=O)CO)C[C@@H]3O[C@H]1C[C@H](N)[C@H](O)[C@H](C)O1` [Doxorubicin, reference compound]: the IC50 in series [1] (Homo sapiens, MDA-MB-231, 48 h) was 0.89 ± 0.02 µM; in series [2] (Homo sapiens, HeLa) it was 1.68 ± 0.24 µM; in series [3] (Homo sapiens, IMR-32, 48 h), 0.23 µM.
